Assay results published in US9248109B2, “High penetration prodrug compositions of peptides and peptide-related compounds” (priority 2009, dated 2016).

What was measured:
[1] = In vitro penetration rate across isolated human skin in modified Franz cells (HPLC); settings: parent drugs; at lowest detectable value, considered not detectable
Experimental: The penetration rates of HPPs/HPCs and their parent drugs through human skin were measured in vitro by modified Franz cells. The Franz cells had two chambers, the top sample chamber and the bottom receiving chamber. The human skin tissue (360-400 p.m thick) that separated the top and the receiving chambers was isolated from the anterior or posterior thigh areas.
A compound tested (2 mL, 20% in 0.2 M phosphate buffer, pH 7.4) was added to the sample chamber of a Franz cell. The receiving chamber contains 10 ml of pH 7.4 phosphate buffer (0.2 M) which was stirred at 600 rpm. The amount of the tested compound penetrating the skin was determined by high-performance liquid chromatography (HPLC) method.

[2] = tested on: mice; assay: Acetic acid writhing inhibition in mice, transdermal; format: in vivo, mouse; settings: 10 mg/kg transdermally to the neck, acetic acid i.p. 30 minutes later; for rate of writhing inhibition (%): based on the control group; for No. of Writhings: control 35.0
Experimental: The number of writhings that occurred when mice were administered an acetic acid solution intraperitoneally were counted, and the rate of inhibition based on the control group was calculated. […] 30 minutes later, acetic acid solution was administered. The group A was the control group.

[3] = tested on: Osborne-Mendel rats; settings: injected intraperitoneally, rats starved overnight, high-fat diet; cited from earlier work
[4] = tested on: rats; assay: Solicitation and copulation of rats treated transdermally with HPPs/HPCs of Melanocortin II; format: in vivo, rat; settings: for increase in copulation comparing to the control group / increase in solicitation comparing to the control group: 2 mg/kg once per day for 5 days; for Increased Copulation / Increased Solicitation: 2 mg/kg on the back once per day for 5 days, control = 1
Experimental: The same dosage of cyclo(1,6)-Ac-Nle-Asp-His-Phe-Arg(NO2)-Trp-Lys-OCH2CH2N(CH2CH3)2.HCl(SEQ ID NO: 201) (peptide B) was applied to the back of another group of male rats (Group B-1, 30 rats). Rats of a control group were not treated with any drug. […] 6 fold increase in solicitation and 3 fold increase in copulation for Group B-1 in rats were observed comparing to the control group (Table 15).
2 mg/kg peptide A and peptide B in 0.2 ml of pH 7.0 phosphate buffer (0.1M) were applied to the back of both male rats (30 rats) and female rats (30 rates) once per day for 5 days. Rats of a control group were not treated with any drug.

[5] = male and female rats treated (Groups A-2, B-2)
[6] = male rats treated (Groups A-1, B-1)

CSCC[C@H](NC(=O)[C@H](Cc1ccccc1)NC(=O)CNC(=O)CNC(=O)[C@@H](N)Cc1ccc(O)cc1)C(=O)O [Met-enkephalin, H-Tyr-Gly-Gly-Phe-Met-OH]
apparent flux value [1]: 1 μg/cm^2/h

Ac-Tyr(Ac)-D-Ala-Gly-Phe-Leu-OCH2CH2N(CH2CH3).HCl
rate of writhing inhibition (%) [2]: 85% | No. of Writhings [2]: 5.2

H-Val-Pro-Asp-Pro-Arg OH
food intake (in words) [3]: dose-dependent reduction in food intake

HCl.H-Tyr(Ac)-D-Ala-Gly-Phe-Leu-OCH2(CH2)4—CH3 [B]
rate of writhing inhibition (%) [2]: 75% | No. of Writhings [2]: 8.6

HCl.H-Tyr(Ac)-D-Ala-Gly-Phe-Met(O)—OL
rate of writhing inhibition (%) [2]: 91% | No. of Writhings [2]: 3.2

cyclo(1,6)-Ac-Nle-Asp-His-Phe-Arg(diAc)-Trp-Lys-OCH2CH2N(CH2CH3)2.HCl
increase in copulation comparing to the control group [4, 5]: 5 fold | increase in solicitation comparing to the control group [4, 5]: 6 fold | Increased Copulation ([4]; male and female rats treated): 5 | Increased Solicitation ([4]; male and female rats treated): 6 | increase in copulation comparing to the control group [4, 6]: 3 fold | increase in solicitation comparing to the control group [4, 6]: 5 fold | Increased Copulation ([4]; male rats treated): 3 | Increased Solicitation ([4]; male rats treated): 5
